Assay results from PubChem BioAssay AID1259407 (Chemical Carcinogenesis Research Information System (CCRIS), 2018).
Calls of active or inactive are those of the source. How the calls were made is not given here.

System: CCRIS mutagenicity, Ames/micronucleus/aberration tests
Test: CCRIS mutagenicity studies
[1] = Test System: AMES SALMONELLA TYPHIMURIUM, Strain/Indicator: TA100, Metabolic Activation: NONE, Method: STANDARD PLATE
[2] = Test System: MOUSE LYMPHOMA, Strain/Indicator: L5178Y (TK+/TK-), Metabolic Activation: NONE, Method: SUSPENSION/PLATE
[3] = End Point: IN VITRO CHROMOSOMAL ABERRATIONS, Test System: HUMAN LYMPHOCYTES, Metabolic Activation: NONE
[4] = Test System: AMES SALMONELLA TYPHIMURIUM, Strain/Indicator: TA100, Metabolic Activation: NONE, Method: PREINCUBATION

Measured: mutagenic call

N[C@@H](CS)C(=O)O
inactive: End Point: IN VIVO MICRONUCLEUS, Test System: BONE MARROW POLYCHROMATIC ERYTHROCYTES, Species: MOUSE, Strain/Sex: DDY/MALE, Route: IP inactive; negative | Test System: AMES SALMONELLA TYPHIMURIUM, Strain/Indicator: TA104, Metabolic Activation: RAT, KIDNEY, S-9, Method: STANDARD PLATE inactive; negative | Test System: AMES SALMONELLA TYPHIMURIUM, Strain/Indicator: TA1535, Metabolic Activation: RAT, KIDNEY, S-9, Method: PREINCUBATION inactive; negative | Test System: AMES SALMONELLA TYPHIMURIUM, Strain/Indicator: TA1537, Metabolic Activation: RAT, KIDNEY, S-9, Method: PREINCUBATION inactive; negative | Test System: CHINESE HAMSTER V-79, Strain/Indicator: V-79/6-THIOGUANINE, Metabolic Activation: NONE, Method: STANDARD PLATE inactive; negative
active: Test System: AMES SALMONELLA TYPHIMURIUM, Strain/Indicator: TA92, Metabolic Activation: HOMOGENIZED V-79, Method: STANDARD PLATE active; positive | Test System: AMES SALMONELLA TYPHIMURIUM, Strain/Indicator: TA92, Metabolic Activation: NONE, Method: STANDARD PLATE active; positive | Test System: AMES SALMONELLA TYPHIMURIUM, Strain/Indicator: TA92, Metabolic Activation: RAT, KIDNEY, S-9, Method: PREINCUBATION active; positive | Test System: AMES SALMONELLA TYPHIMURIUM, Strain/Indicator: TA92, Metabolic Activation: RAT, KIDNEY, S-9, Method: STANDARD PLATE active; positive | Test System: AMES SALMONELLA TYPHIMURIUM, Strain/Indicator: TA92, Metabolic Activation: RAT, LIVER, S-9, Method: STANDARD PLATE active; positive | Test System: AMES SALMONELLA TYPHIMURIUM, Strain/Indicator: TA97, Metabolic Activation: RAT, KIDNEY, S-9, Method: PREINCUBATION active; positive | Test System: AMES SALMONELLA TYPHIMURIUM, Strain/Indicator: TA97, Metabolic Activation: RAT, KIDNEY, S-9, Method: STANDARD PLATE active; positive | Test System: AMES SALMONELLA TYPHIMURIUM, Strain/Indicator: TA98, Metabolic Activation: HAMSTER, LIVER, S-9, AROCLOR 1254, Method: STANDARD PLATE active; positive | Test System: AMES SALMONELLA TYPHIMURIUM, Strain/Indicator: TA98, Metabolic Activation: RAT, LIVER, S-9, AROCLOR 1254, Method: STANDARD PLATE active; positive | Test System: AMES SALMONELLA TYPHIMURIUM, Strain/Indicator: TA100, Metabolic Activation: HAMSTER, LIVER, S-9, AROCLOR 1254, Method: STANDARD PLATE active; positive | [1] active; positive | Test System: AMES SALMONELLA TYPHIMURIUM, Strain/Indicator: TA100, Metabolic Activation: RAT, KIDNEY, S-9, Method: PREINCUBATION active; positive | Test System: AMES SALMONELLA TYPHIMURIUM, Strain/Indicator: TA100, Metabolic Activation: RAT, KIDNEY, S-9, Method: STANDARD PLATE active; positive | Test System: AMES SALMONELLA TYPHIMURIUM, Strain/Indicator: TA100, Metabolic Activation: RAT, LIVER, S-9, AROCLOR 1254, Method: STANDARD PLATE active; positive | Test System: AMES SALMONELLA TYPHIMURIUM, Strain/Indicator: TA100, Metabolic Activation: RAT, LIVER, S-9, Method: STANDARD PLATE active; positive | Test System: AMES SALMONELLA TYPHIMURIUM, Strain/Indicator: TA102, Metabolic Activation: NONE, Method: STANDARD PLATE active; positive | Test System: AMES SALMONELLA TYPHIMURIUM, Strain/Indicator: TA102, Metabolic Activation: RAT, KIDNEY, S-9, Method: PREINCUBATION active; positive | Test System: AMES SALMONELLA TYPHIMURIUM, Strain/Indicator: TA104, Metabolic Activation: RAT, KIDNEY, S-9, Method: PREINCUBATION active; positive | [2] active; positive. reevaluation of results: positive | Test System: MOUSE LYMPHOMA, Strain/Indicator: L5178Y (TK+/TK-), Metabolic Activation: RAT, LIVER, S-9, AROCLOR 1254, Method: SUSPENSION/PLATE active; positive. reevaluation of results: positive

O=C(CCCN1CC=C(n2c(=O)[nH]c3ccccc32)CC1)c1ccc(F)cc1
inactive: [3] inactive; negative

CC(=O)OCc1cccc([N+](=O)[O-])c1
inactive: Test System: AMES SALMONELLA TYPHIMURIUM, Strain/Indicator: TA98, Metabolic Activation: NONE, Method: PREINCUBATION inactive; negative | [4] inactive; negative | Test System: AMES SALMONELLA TYPHIMURIUM, Strain/Indicator: TA100, Metabolic Activation: RAT, LIVER, S-9, AROCLOR 1254, Method: PREINCUBATION inactive; negative

CCc1nc(N)nc(N)c1-c1ccc(Cl)cc1
inactive: End Point: IN VITRO MICRONUCLEUS, Test System: HAMSTER V79 CELLS, Metabolic Activation: NONE inactive; negative | Test System: E.COLI, Strain/Indicator: WP2UVRA/PKM101, Metabolic Activation: NONE, Method: PREINCUBATION inactive; negative | Test System: E.COLI, Strain/Indicator: WP2UVRA/PKM101, Metabolic Activation: RAT LIVER S-9, PHENOBARBITAL AND 5,6-BENZOFLAVONE, Method: PREINCUBATION inactive; negative
active: [3] active; positive | End Point: In vivo chromosomal aberrations, Species: Mouse, Strain/Sex: Swiss/Male, Route: Intraperitoneal active; positive (at highest dose only) | End Point: In vivo chromosomal aberrations, Test System: Bone marrow cells, Species: Mouse, Strain/Sex: Swiss/Male, Route: Intraperitoneal active; positive (chromatid breaks and acentric fragments) | End Point: In vivo chromosomal aberrations, Test System: Spermatocytes, Species: Mouse, Strain/Sex: Swiss/Male, Route: Intraperitoneal active; positive (at highest dose only)

Nc1nc(NO)c2[nH]cnc2n1
active: Test System: AMES SALMONELLA TYPHIMURIUM, Strain/Indicator: HISG46, Metabolic Activation: NONE, Method: STANDARD PLATE active; positive | Test System: AMES SALMONELLA TYPHIMURIUM, Strain/Indicator: TA100(1,8-DNP6), Metabolic Activation: NONE, Method: PREINCUBATION active; positive | Test System: AMES SALMONELLA TYPHIMURIUM, Strain/Indicator: TA100(NR), Metabolic Activation: NONE, Method: PREINCUBATION active; positive | [4] active; positive | [1] active; positive | Test System: AMES SALMONELLA TYPHIMURIUM, Strain/Indicator: TA100, Metabolic Activation: RAT, LIVER, S-9, KANECHLOR 500, Method: PREINCUBATION active; positive | Test System: AMES SALMONELLA TYPHIMURIUM, Strain/Indicator: TA1950, Metabolic Activation: NONE, Method: STANDARD PLATE active; positive | Test System: CHINESE HAMSTER OVARY, Strain/Indicator: CHO-K1-BH4 (HGPRT), Metabolic Activation: NONE, Method: SUSPENSION active; positive | Test System: E. COLI, Strain/Indicator: CM871, Metabolic Activation: NONE, Method: STANDARD PLATE active; positive | Test System: E. COLI, Strain/Indicator: WP2, Metabolic Activation: NONE, Method: STANDARD PLATE active; positive | Test System: E. COLI, Strain/Indicator: WP2S, Metabolic Activation: NONE, Method: STANDARD PLATE active; positive | Test System: E. COLI, Strain/Indicator: WP2 UVRA, Metabolic Activation: NONE, Method: STANDARD PLATE active; positive | Test System: MOUSE LYMPHOMA, Strain/Indicator: L5178Y (TK+/TK-)/6-THIOGUANINE, Metabolic Activation: NONE, Method: SUSPENSION active; positive | Test System: MOUSE LYMPHOMA, Strain/Indicator: L5178Y (TK+/TK-)/6-THIOGUANINE, Metabolic Activation: NONE, Method: SUSPENSION IN TRAYS active; positive | Test System: MOUSE LYMPHOMA, Strain/Indicator: L5178Y (TK+/TK-)/OUABAIN, Metabolic Activation: NONE, Method: SUSPENSION active; positive | Test System: MOUSE LYMPHOMA, Strain/Indicator: L5178Y (TK+/TK-)/OUABAIN, Metabolic Activation: NONE, Method: SUSPENSION IN TRAYS active; positive | Test System: MOUSE LYMPHOMA, Strain/Indicator: L5178Y (TK+/TK-)/TRIFLUOROTHYMIDINE, Metabolic Activation: NONE, Method: SUSPENSION active; positive | Test System: MOUSE LYMPHOMA, Strain/Indicator: L5178Y (TK+/TK-)/TRIFLUOROTHYMIDINE, Metabolic Activation: NONE, Method: SUSPENSION IN TRAYS active; positive | [2] active; positive
inactive: Test System: AMES SALMONELLA TYPHIMURIUM, Strain/Indicator: TA98, Metabolic Activation: NONE, Method: STANDARD PLATE inactive; negative

C1=C2c3ccccc3CCC2CCC1 (stereo not drawn)
active: Test System: AMES SALMONELLA TYPHIMURIUM, Strain/Indicator: TA98, Metabolic Activation: RAT, LIVER, S-9, SODIUM PHENOBARBITAL AND BETA-NAPHTHOFLAVONE, Method: STANDARD PLATE active; positive | Test System: AMES SALMONELLA TYPHIMURIUM, Strain/Indicator: TA100, Metabolic Activation: RAT, LIVER, S-9, SODIUM PHEOBARBITAL AND BETA-NAPHTHOFLAVONE, Method: STANDARD PLATE active; positive
